Measured values reported in patent US20160287553A1, “TRANSLATION INHIBITORS IN HIGH-DOSE CHEMO- AND/OR HIGH-DOSE RADIOTHERAPY” (DEUTSCHES KREBSFORSCHUNGSZENTRUM, priority 2013, published 2016).

Key:
Peripheral blood T cells = experiment: Etoposide-induced apoptotic cell death of T cells (DNA fragmentation, AnnexinV, FSC/SSC); settings: for Protection of normal T cells from Etoposide-induced cell death by Roc-derivatives: 50 μM Etoposide, 75 nM Roc-derivative, 24 h (FIG. 6b)
Description: The human malignant cell lines EU-3 (acute lymphoblastic leukemia), DND-41 (T cell leukemia), Hut-78 (T cell lymphoma), SKW6.4 (B cell leukemia), Reh (acute lymphoblastic leukemia), IM-9 (Chronic myeloid leukemia), HL-60 (promyelocytic leukemia), L1236 (Hodgkin's lymphoma) and NCI-H209 (small cell lung cancer) were cultured at 37° C. with 5% CO2 in RPMI-1640 medium (Sigma-Aldrich, Munich, Germany) supplemented with 10% FCS, 100 U/ml Penicillin (Sigma-Aldrich, Munich, Germany) and 100 μg/ml Streptamycin (Sigma-Aldrich, Munich, Germany) SCLC-21H cells (small cell lung cancer) were cultured in DMEM medium (Sigma-Aldrich, Munich, Germany) supplemented with 10% FCS. Peripheral blood T lymphocytes were isolated as previously described (Klas et al., Int Immunol. 1993; 5: 625-630). B lymphocytes and NK cells were isolated by magnetic activated cell sorting using “B cell isolation kit II” (Miltenyi Biotech, Bergisch Gladbach, Germany) and “NK cell isolation kit, human” (Miltenyi Biotech, Bergisch Gladbach, Germany), respectively, according to the manufacturer's instructions. Human neutrophils were separated from peripheral blood mononuclear cells by Ficoll-Paque density centrifugation, followed by incubation in 1.05% dextran for 30 min at room temperature. Remaining erythrocytes were lysed by resuspension in ice-cold 0.2% sodium chloride solution. After 1 min ice-cold 1.6% sodium-chloride solution was added and lysis was stopped by addition of PBS and neutrophils were resuspended in medium at a concentration of 2×10^6 cells/ml. Human primary cardiomyocytes were purchased from PromoCell (Heidelberg, Germany) and cultured in Myocyte Growth Medium (PromoCell, Heidelberg, Germany). Remaining primary human cells were cultured in RPMI-1640 medium with the same conditions described above.
Apoptotic cell death was determined by AnnexinV staining, cellular forward scatter/side scatter (FSC/SSC) profile, or DNA fragmentation. For AnnexinV staining, 2×10^5 cells were treated with different drugs for indicated time periods, washed with AnnexinV binding buffer (0.01 M Hepes, 0.14 M NaCl, 2.5 mM CaCl2), and stained with AnnexinV-FITC antibody (Immunotools, Friesoythe, Germany) and 7-amino-actinomycin D (Sigma-Aldrich, Munich, Germany) for 30 min at 4° C. The amount of AnnexinV positive cells was determined by FACS measurement. DNA fragmentation was determined according to the method of Nicoletti (Nicoletti et al., J Immunol Methods. 1991; 139: 271-279). Briefly, 2×10^5 cells were treated as indicated, washed with PBS and lysed in Nicoletti buffer (0.1% sodium citrate, 0.1% Triton X-100, 50 μg/ml propidium iodide). DNA fragmentation was determined by FACS. Apoptosis-like cells were determined by forward scatter and side scatter (FSC/SSC) index. Specific DNA fragmentation/specific AnnexinV positive cells/specific apoptosis was calculated as follows: (percentage of experimental DNA fragmentation (or Annexin V positive cells or apoptosis)−percentage of spontaneous DNA fragmentation (or Annexin V positive cells or apoptosis)/(100−percentage of spontaneous DNA fragmentation (or Annexin V positive cells or apoptosis))×100.

[1] = system: protein synthesis in T cells; experiment: Translation assay: [35S]methionine incorporation in T cells; assay type: cell-based, human; settings: T cells (FIG. 6b)
Description: The relative amount of protein synthesis was determined by measuring the amount of incorporation of ^35S-methionine into the protein. Briefly, cells were pre-cultured in methionine-free medium (supplemented with 10% dialyzed FCS) for 3 h, followed by incubation with 3.5 μCi of ^35S-methionine-labeling mix (PerkinElmer, Waltham, Mass., USA) per 8×10^5 cells for 6 h as indicated. After the treatment, cells were washed twice with ice-cold PBS and lysed in RIPA buffer. 50 μl of each lysate were added to 1 ml of Liquid Scintillation Cocktail solution (Beckman Coulter, Brea, Calif., USA) and the amount of incorporated radioactivity was determined by liquid scintillation counting.
Roc-A has been well documented to inhibit protein translation (Polier et al., Chem Biol. 2012; 19: 1093-1104; Sadlish et al., ACS Chem Biol. 2013; doi:10.1021/cb400158t; Bleumink et al., Cell Death Differ. 2011; 18: 362-370; Cencic et al., PloS one. 2009; 4: e5223). Thus, we expected that Roc-A-mediated suppression of genotoxin-induced p53 upregulation may be regulated by inhibition of p53 protein synthesis.

ERK = settings: Polier et al., op. cit.; cited from earlier work
malignant cells = experiment: Fold change in cell death on raising the Etoposide dose, malignant cells (FIG. 9a-b); assay type: cell-based; settings: Etoposide from 6.25 μM to 50 μM, 24 h, solvent (FIG. 9a)
Description: (§1) (a) Cells from (b) were grouped into malignant and non-malignant cells. Shown are means of three independent experiments. Abbreviations; HSPCs=hematopoietic stem and progenitor cells. (c-d) Malignant and non-malignant cells were exposed to ionizing radiation (IR) in the presence of 75 nM Roc-A or solvent (DMSO) and cell death was determined after 24 h by DNA fragmentation. Depicted is the fold-change in cell death that was measured when doses of IR were increased from 2 Gy to 10 Gy. (c) Cells from (d) were grouped into malignant and non-malignant cells. Shown are means of three independent experiments.
(§2) DNA fragmentation was determined by FACS.
(§3) Roc-A specifically prevents the cause of chemotherapeutic and radiation-induced side-effects, i.e., the death of healthy cells. […] Consequently, high-dose therapy is not possible, as side effects would be too high.

non-malignant cells = experiment: Fold change in cell death on raising the Etoposide dose, non-malignant cells (FIG. 9a-b); assay type: cell-based; settings: Etoposide from 6.25 μM to 50 μM, 24 h, solvent (FIG. 9a)
Description: as §1, §2, §3

Primary human T cells = experiment: Ionizing radiation (IR)-induced apoptosis in T cells; assay type: cell-based; settings: 24 h, increasing doses of IR, different concentrations of FL3 (FIG. 8b)
Description: as §2
The radioprotective effect mediated by Roc-A was the highest when cells were treated with Roc-A 1 h before radiation of cells (FIG. 1d). However, when cells were treated 4 h after radiation, the radioprotective effect was still higher than 50% (FIG. 1d).

p53 = p53 protein expression by immunoblot; assay type: cell-based, human; settings: T cells, 100 nM Bortezomib
Description: Immunoblot analysis was carried out as previously described (Polier et al., Chem Biol. 2012; 19: 1093-1104). Briefly, 4-20×10^6 cells were treated with different reagents as indicated and lysed in RIPA buffer (50 mM Tris HCl, 137 mM NaCl, 0.5% Na Deoxycholate, 1% Triton X-100, 0.1% SDS, protease inhibitors). Proteins were separated by SDS-PAGE and transferred to a nitrocellulose membrane (Amersham Biosciences, Little Chalfon, UK) using a semi-dry blotting approach. The following antibodies were used: p53 (DO-1) antibody was purchased from Santa Cruz Biotechnology (Heidelberg, Germany). Tubulin and actin (A5441) antibodies were purchased from Sigma-Aldrich (St. Louis, USA).
The transcription factor p53 is a major regulator of DNA damage-induced apoptosis (Lowe et al., Cell. 1993; 74: 957-967). Therefore, we investigated the effect of Roc-A on the expression level of p53.
p53 protein expression can be regulated at the level of transcription, translation, and ubiquitination-mediated degradation (Marine & Lozano, Cell Death Differ. 2010; 17: 93-102). It has been shown that upon DNA damage p53 undergoes post-translational modifications leading to its deubiquitination and, thus, stabilization (Lee & Gu, Cell Death Differ. 2010; 17: 86-92). To investigate whether Roc-A could decrease p53 stability, we treated T cells with the proteasome inhibitor Bortezomib to block proteasome-mediated degradation.

Compound: CNC(=O)[C@H]1[C@@H](O)[C@@]2(O)c3c(OC)cc(OC)cc3O[C@@]2(c2ccc(OC)cc2)[C@@H]1c1ccccc1 [Roc-Q, demethylrocaglamide]
- Protection of normal T cells from Etoposide-induced cell death by Roc-derivatives (Peripheral blood T cells): different levels of protection
- Inhibition of [35S]methionine incorporation (protein translation) [1]: inhibited [^35S]methionine incorporation at different degrees
- Inhibitory effect on ERK activity / activation (ERK): inhibit ERK activation with different efficacies

Compound: COC(=O)C1C(OC(C)=O)C2(O)c3c(OC)cc(OC)cc3OC2(c2ccc(OC)cc2)C1c1ccccc1 (centres unmarked) [Roc-AA, C-1-O-acetyl-methylrocaglate]
- Protection of normal T cells from Etoposide-induced cell death by Roc-derivatives (Peripheral blood T cells): did not protect T cells
- Inhibition of [35S]methionine incorporation (protein translation) [1]: did not inhibit protein translation
- Inhibitory effect on ERK activity / activation (ERK): do not show any or very little inhibitory effects on ERK activity

Compound: COC(=O)[C@H]1[C@@H](O)[C@@]2(O)c3c(OC)cc(OC)cc3O[C@@]2(c2ccc(OC)c(O)c2)[C@@H]1c1ccccc1 [Roc-J, 30-hydroxyaglafoline]
- Protection of normal T cells from Etoposide-induced cell death by Roc-derivatives (Peripheral blood T cells): different levels of protection
- Inhibition of [35S]methionine incorporation (protein translation) [1]: inhibited [^35S]methionine incorporation at different degrees
- Inhibitory effect on ERK activity / activation (ERK): inhibit ERK activation with different efficacies

Compound: COc1cc(OC)c2c(c1)OC1(c3ccc(OC)c(O)c3)C(c3ccccc3)C(C(=O)N(C)C)C(OC(C)=O)C21O (centres unmarked) [Roc-I, C-1-O-acetyl-30-hydroxy-rocaglamide]
- Protection of normal T cells from Etoposide-induced cell death by Roc-derivatives (Peripheral blood T cells): did not protect T cells
- Inhibition of [35S]methionine incorporation (protein translation) [1]: did not inhibit protein translation
- Inhibitory effect on ERK activity / activation (ERK): do not show any or very little inhibitory effects on ERK activity

Compound: COc1cc(OC)c2c(c1)OC1(c3ccc4c(c3)OCO4)C(c3ccccc3)CC(=O)C21O (centres unmarked) [Roc-AR, 1-oxo-40-demethoxy-30,40-methylenedioxyrocaglaol]
- Protection of normal T cells from Etoposide-induced cell death by Roc-derivatives (Peripheral blood T cells): different levels of protection
- Inhibition of [35S]methionine incorporation (protein translation) [1]: inhibited [^35S]methionine incorporation at different degrees
- Inhibitory effect on ERK activity / activation (ERK): inhibit ERK activation with different efficacies

Compound: COc1cc([C@@H]2c3cc4c(cc3[C@@H](O[C@@H]3O[C@@H]5CO[C@@H](C)O[C@H]5[C@H](O)[C@H]3O)[C@H]3COC(=O)[C@H]23)OCO4)cc(OC)c1O [Etoposide, reference compound]
- Cell death of normal T cells by the genotoxin (Peripheral blood T cells; 24 h, increasing concentrations of Etoposide): caused cell death of normal T cells
- Increase in Etoposide-induced cell death (malignant cells): approximately 3 fold
- Increase in Etoposide-induced cell death (non-malignant cells): up to 3 fold

Compound: COC(=O)C1C(O)C2(O)c3c(OC)cc(OC)cc3OC2(c2ccc3c(c2)OCO3)C1c1ccccc1 (centres unmarked) [Roc-AF, 30,40-methylendioxy-methylrocaglate]
- Protection of normal T cells from Etoposide-induced cell death by Roc-derivatives (Peripheral blood T cells): did not protect T cells
- Inhibition of [35S]methionine incorporation (protein translation) [1]: did not inhibit protein translation
- Inhibitory effect on ERK activity / activation (ERK): do not show any or very little inhibitory effects on ERK activity

Compound: COc1ccc([C@@]23Oc4cc(OC)cc(OC)c4[C@]2(O)[C@H](OC(C)=O)[C@H](C(=O)N(C)C)[C@H]3c2ccccc2)cc1 [Roc-AB, 1-O-acetyl-rocaglamide]
- Protection of normal T cells from Etoposide-induced cell death by Roc-derivatives (Peripheral blood T cells): different levels of protection
- Inhibition of [35S]methionine incorporation (protein translation) [1]: inhibited [^35S]methionine incorporation at different degrees
- Inhibitory effect on ERK activity / activation (ERK): inhibit ERK activation with different efficacies

Compound: COc1cc(OC)c2c(c1)O[C@@]1(c3ccc(Br)cc3)[C@H](c3ccccc3)C[C@@H](O)[C@@]21O (racemic) [FL3, racemic bromo-demethoxy-rocaglaol]
- Protection of T cells from Etoposide-induced apoptotic cell death by FL3 (Peripheral blood T cells; 24 h, increasing doses of Etoposide, different concentrations of FL3 (FIG. 8a)): protects T cells
- Protection of T cells from IR-induced apoptotic cell death by FL3 (Primary human T cells): protects T cells

Compound: CC(C)C[C@H](NC(=O)[C@H](Cc1ccccc1)NC(=O)c1cnccn1)B(O)O [Bortezomib, reference compound]
- Interference with Roc-A block of Etoposide-induced p53 upregulation (p53; 50 μM Etoposide, 75 nM Roc-A, 4 h (FIG. 6a)): did also not interfere with the ability of Roc-A to block Etoposide-induced p53 upregulation
- p53 level on proteasome inhibition (p53; absence of Roc-A (FIG. 6a)): led to an increase in p53
- p53 level on proteasome inhibition (p53; presence of 75 nM Roc-A (FIG. 6a)): could not increase p53
